Measurements from patent US8778985B2, “Inhibiting amyloid-beta peptide/rage interaction at the blood-brain barrier” (The University of Rochester, priority 2006, dated 2014).

Target: T1, RAGE (Homo sapiens, UniProt Q15109)
T1 construct: expressed in transfected cells; host or cells: Chinese hamster ovary (CHO) cells
Test: 125I-Aβ40 specific binding on RAGE-transfected CHO cells at 4° C., competitive inhibition
Conditions: for inhibitory constant (Ki) of Aβ-RAGE binding: competitive
From the text: Data are mean±s.e.m., n=3 per group.
All three are tertiary amides substituted with a large, hydrophobic hydrocarbon moiety and a monosubstituted aromatic moiety. Linkage to the monosubstituted aromatic is either direct (FPS2) or via an alkyl (FPS1) or heteroaromatic (FPS3) spacer. Two of the compounds also feature a highly electron-poor substituted benzene ring (3-nitro, 4-chloro for FPS1; 3,5-dinitro for FPS2).

T1 sequence (Q15109 23-404): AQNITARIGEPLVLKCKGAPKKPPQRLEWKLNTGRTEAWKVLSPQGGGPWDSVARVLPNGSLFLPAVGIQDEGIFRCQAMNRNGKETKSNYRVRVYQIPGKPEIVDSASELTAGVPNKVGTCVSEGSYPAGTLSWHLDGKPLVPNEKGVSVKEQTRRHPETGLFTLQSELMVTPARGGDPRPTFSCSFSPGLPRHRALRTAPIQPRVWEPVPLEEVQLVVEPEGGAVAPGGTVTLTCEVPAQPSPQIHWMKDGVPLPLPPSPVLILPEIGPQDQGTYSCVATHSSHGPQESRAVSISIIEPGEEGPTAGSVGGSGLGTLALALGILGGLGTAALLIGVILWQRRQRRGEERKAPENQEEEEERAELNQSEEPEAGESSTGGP

Ki/Kd ratio (Ki compound's inhibitory constant, Kd Aβ-RAGE binding constant) | inhibitory constant (Ki) of Aβ-RAGE binding | Compound
2.6 | low | CCOCCCN(CC(=O)N(Cc1cccn1Cc1ccc(F)cc1)C1CCCCC1)C(=O)C(C)(C)CCl [FPS1, 3-chloro-N-[2-[cyclohexyl[[1-[(4-fluorophenyl)methyl]-1H-pyrrol-2-yl]methyl]amino]-2-oxoethyl]-N-(3-ethoxypropyl)-2,2-dimethyl-(9Cl)-propanamide]
1.6 | low | CCCCCC(=Cc1ccccc1)CN(CCc1c[nH]c2ccccc12)C(=O)c1ccc(Cl)c([N+](=O)[O-])c1 [FPS3, 4-chloro-N-[2-(1H-indo-3-yl)-ethyl]-3-nitro-N-(2-pentyl-3-phenyl-allyl)-benzamide]
